Data: paper PMC8143356, “Mechanism of Resistance Development in E. coli against TCAT, a Trimethoprim-Based Photoswitchable Antibiotic” (Pharmaceuticals, 2021)

Biological target: T1, dihydrofolate reductase (DHFR) (Escherichia coli, UniProt P0ABQ4, C152S/C85A)
T1 construct: gene folA
T1 sequence (P0ABQ4 1-159 C85A/C152S): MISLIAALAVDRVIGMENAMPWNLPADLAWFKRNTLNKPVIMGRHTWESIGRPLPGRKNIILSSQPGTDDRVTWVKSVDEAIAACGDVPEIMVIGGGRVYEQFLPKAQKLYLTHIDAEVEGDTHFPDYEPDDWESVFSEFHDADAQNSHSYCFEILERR
Test: spectrophotometric DHFR activity assay ([…] nm) with in-house purified E. coli DHFR, triplicates
Type: biochemical

For `COc1cc(Cc2cnc(N)nc2N)cc(OC)c1OCc1cc(Cl)c(/N=N\c2c(Cl)cccc2Cl)c(Cl)c1` [TCATa], the IC50 was 3.3 ± 2.1 nM.
`COc1cc(Cc2cnc(N)nc2N)cc(OC)c1OCc1cc(Cl)c(/N=N/c2c(Cl)cccc2Cl)c(Cl)c1` [TCATd] showed an IC50 of 3.8 ± 1.4 nM.
